US6376472B1, “Compounds having antihypertensive, cardioprotective, anti-ischemic and antilipolytic properties” (Aventis Pharmaceuticals, Inc., priority 1996, dated 2002)

Assays:
[1] = test system: lipolysis; conditions: selective agonists of the A2 receptor subtype; cited from earlier work
[2] = test system: A1 and A2 receptors; conditions: selectivity of receptor affinity; cited from earlier work
[3] = test system: A2 receptor; conditions: relative to NECA; cited from earlier work

Structure (SMILES): COC[C@H]1C[C@@H](n2cnc3c(N[C@H]4CCN(c5ccc(C(F)(F)F)cn5)C4)ncnc32)[C@@H](O)[C@H]1O
- melting point: 166 to 168 °C

Structure (SMILES): CCNC(=O)[C@H]1O[C@@H](n2cnc3c(N)nc(NCCc4ccc(CCC(=O)O)cc4)nc32)[C@H](O)[C@@H]1O [CGS 21680]
- antilipolytic activity [1]: do not exhibit antilipolytic activity

Structure (SMILES): OC[C@H]1O[C@@H](n2cnc3c(NC4CCCC4)ncnc32)[C@H](O)[C@@H]1O [CPA, Cyclopentyladenosine]
- A2/A1 ratio [2]: 780

Structure (SMILES): Nc1nc(Nc2ccccc2)nc2c1ncn2[C@@H]1O[C@H](CO)[C@@H](O)[C@H]1O [CV-1808]
- fold less potent than NECA in affinity for the A2 receptor [3]: 10 fold
- A2/A1 ratio [2]: 0.19
